The nature of series [1]: Solubility in water.
The nature of series [2]: pH. The class given is physicochemical.
The conditions of series [3]: free base form of the drug named as HCl salt; cited from earlier work.

Where a name gives a salt, the structure may show the parent alone.

`C#CCN(C)[C@H](C)Cc1ccccc1` [Selegiline free base, selegiline]: in series [1], the solubility in water entry was “only sparingly soluble in water”.

In the case of `CCN(CC)CC` [Triethylamine], in series [2], the “calculated pH” value is recorded as “approximately 13.7” and the “measured pH” value is recorded as “approximately 11.7”.

Regarding `Clc1cccc(Cl)c1N=C1NCCN1` [clonidine-HCl], in series [3], the “pKb of the free base form” value is 7.

Consider `C#CCN(C)[C@H](C)Cc1ccccc1` [selegiline-HCl], for which the solubility in water result in series [1] is given as “readily soluble in water”.

In the case of phenylpropranolol-HCl, the “pH of the free base form” value in series [2] (free base form) is given as “approximately 13”.

Values taken from patent US7638140B2, “Adhesive mixture for transdermal delivery of highly plasticizing drugs” (priority 1997, dated 2009).
